In PMC11831560, “Development of the Pyrido[2,3-d]pyrimidin-7(8H)-one Scaffold toward Potent and Selective NUAK1 Inhibitors” (ACS Medicinal Chemistry Letters, 2025):
Several values for one entry are separate records, joined by “and”; a condition that tells them apart may be missing. Equal entries are not always repeated.

Assays:
Test in all cases: Kinase panel radiometric filter binding (33P-ATP)
Format in all cases: biochemical
SIK2 = SIK2 (Homo sapiens, UniProt Q9H0K1); set-up: % activity remaining: dose or concentration left out as unconfirmed; conditions: for % activity remaining: SIK2
Method: (§1) Table S4: AMPKA kinase activity data (ADP-Glo assay)
(§2) Compound pIC50 (Fold selectivity
(§3) Table S5. Kinase selectivity screening for 9 and 24 at 1 µM against a general kinase panel of 140 targets
(§4) in radiometric filter binding assay using 33P-γ−ATP at the MRC PPU International Centre for Kinase
(§5) Profiling, University of Dundee. pIC50 values were determined for compounds with <20% activity
(§6) Kinase activity s.d. pIC50 activity s.d. pIC50

TAK1 = target: T1, TAK1 (Homo sapiens, UniProt O43318); set-up: % activity remaining: dose or concentration left out as unconfirmed; conditions: for % activity remaining: TAK1
T1 sequence (O43318 1-303 limits assumed): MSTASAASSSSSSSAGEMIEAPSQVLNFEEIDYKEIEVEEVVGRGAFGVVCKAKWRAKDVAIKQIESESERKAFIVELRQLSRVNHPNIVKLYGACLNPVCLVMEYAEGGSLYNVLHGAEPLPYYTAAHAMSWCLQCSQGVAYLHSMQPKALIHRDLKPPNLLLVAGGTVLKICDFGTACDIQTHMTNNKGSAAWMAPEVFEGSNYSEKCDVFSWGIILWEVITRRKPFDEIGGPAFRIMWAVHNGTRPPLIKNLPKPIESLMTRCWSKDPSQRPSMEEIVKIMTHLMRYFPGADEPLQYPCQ
Method: as §1, §2, §3, §4, §5, §6

YES1 = YES1 (Homo sapiens, UniProt P07947); set-up: % activity remaining: dose or concentration left out as unconfirmed; conditions: for % activity remaining: YES1
Method: as §1, §2, §3, §4, §5, §6

MST3 = MST3 (Homo sapiens, UniProt Q9Y6E0); set-up: % activity remaining: dose or concentration left out as unconfirmed; conditions: for % activity remaining: MST3
Method: as §1, §2, §3, §4, §5, §6

MARK4 = target: T2, MARK4 (Homo sapiens, UniProt Q96L34); set-up: % activity remaining: dose or concentration left out as unconfirmed; conditions: for % activity remaining: MARK4
T2 construct: purchased MRC PPU
T2 sequence (Q96L34 1-752): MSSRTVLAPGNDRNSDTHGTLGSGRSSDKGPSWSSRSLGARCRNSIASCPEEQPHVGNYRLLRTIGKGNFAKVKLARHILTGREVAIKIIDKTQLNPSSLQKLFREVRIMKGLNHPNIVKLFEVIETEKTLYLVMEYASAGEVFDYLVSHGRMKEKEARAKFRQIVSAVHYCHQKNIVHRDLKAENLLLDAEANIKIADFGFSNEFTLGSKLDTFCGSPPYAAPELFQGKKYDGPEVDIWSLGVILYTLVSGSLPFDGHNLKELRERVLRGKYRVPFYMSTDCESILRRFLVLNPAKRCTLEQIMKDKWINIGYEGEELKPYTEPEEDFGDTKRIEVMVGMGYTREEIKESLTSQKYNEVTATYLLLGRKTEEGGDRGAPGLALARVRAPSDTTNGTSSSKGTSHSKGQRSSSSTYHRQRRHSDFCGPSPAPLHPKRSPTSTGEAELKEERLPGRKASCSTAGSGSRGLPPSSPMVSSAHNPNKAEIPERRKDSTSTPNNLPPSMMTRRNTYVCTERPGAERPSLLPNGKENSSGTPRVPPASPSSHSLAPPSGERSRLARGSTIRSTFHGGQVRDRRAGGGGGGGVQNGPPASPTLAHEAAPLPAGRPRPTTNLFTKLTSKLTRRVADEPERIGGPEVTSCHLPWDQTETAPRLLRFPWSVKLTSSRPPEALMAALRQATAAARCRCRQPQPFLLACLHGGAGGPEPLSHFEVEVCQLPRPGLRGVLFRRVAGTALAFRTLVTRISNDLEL
Method: as §1, §2, §3, §4, §5, §6

MST2 = MST2 (Homo sapiens, UniProt Q13188); set-up: dose or concentration left out as unconfirmed
In short: (§7)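 140-kinase general panel; radiometric filter binding, 33P-ATP; test compound 1 µM; % activity remaining ± s.d.; pIC50 determined only if <20% activity.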

PDK1 = PDK1 (Homo sapiens, UniProt O15530); set-up: dose or concentration left out as unconfirmed
In short: as §7

JNK1 = JNK1 (Homo sapiens, UniProt P45983); set-up: dose or concentration left out as unconfirmed
In short: as §7

CAMKKb = CAMKKb (Homo sapiens, UniProt Q96RR4); set-up: dose or concentration left out as unconfirmed
In short: as §7

TTK = TTK (Homo sapiens, UniProt P33981); set-up: dose or concentration left out as unconfirmed
In short: as §7

BRK = BRK (Homo sapiens, UniProt Q13882); set-up: dose or concentration left out as unconfirmed
In short: as §7

RIPK2 = RIPK2 (Homo sapiens, UniProt O43353); set-up: dose or concentration left out as unconfirmed
In short: as §7

BTK = BTK (Homo sapiens, UniProt Q06187); set-up: dose or concentration left out as unconfirmed
In short: as §7

GSK3b = GSK3b (Homo sapiens, UniProt P49841); set-up: dose or concentration left out as unconfirmed
In short: as §7

PINK = test system: PINK; set-up: dose or concentration left out as unconfirmed
In short: as §7

IRAK1 = IRAK1 (Homo sapiens, UniProt P51617); set-up: dose or concentration left out as unconfirmed
In short: as §7

WNK1 = WNK1 (Homo sapiens, UniProt Q9H4A3); set-up: dose or concentration left out as unconfirmed
In short: as §7

STK33 = STK33 (Homo sapiens, UniProt Q9BYT3); set-up: dose or concentration left out as unconfirmed
In short: as §7

[1] = radiometric filter binding panel

Sequence of MST3 (Q9Y6E0 whole entry, species assumed): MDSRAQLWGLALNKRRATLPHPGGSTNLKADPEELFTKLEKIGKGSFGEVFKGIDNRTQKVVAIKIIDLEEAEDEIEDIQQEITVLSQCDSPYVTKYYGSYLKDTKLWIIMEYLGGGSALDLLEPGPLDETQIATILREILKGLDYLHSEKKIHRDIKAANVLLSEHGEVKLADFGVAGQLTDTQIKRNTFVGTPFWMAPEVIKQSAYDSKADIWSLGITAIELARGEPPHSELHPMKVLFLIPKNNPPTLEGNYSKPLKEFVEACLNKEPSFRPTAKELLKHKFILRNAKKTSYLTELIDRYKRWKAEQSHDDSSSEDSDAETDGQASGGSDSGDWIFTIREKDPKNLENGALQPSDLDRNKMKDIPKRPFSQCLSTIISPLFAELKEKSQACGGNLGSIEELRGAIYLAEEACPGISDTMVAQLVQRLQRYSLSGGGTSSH
Sequence of YES1 (P07947 whole entry, species assumed): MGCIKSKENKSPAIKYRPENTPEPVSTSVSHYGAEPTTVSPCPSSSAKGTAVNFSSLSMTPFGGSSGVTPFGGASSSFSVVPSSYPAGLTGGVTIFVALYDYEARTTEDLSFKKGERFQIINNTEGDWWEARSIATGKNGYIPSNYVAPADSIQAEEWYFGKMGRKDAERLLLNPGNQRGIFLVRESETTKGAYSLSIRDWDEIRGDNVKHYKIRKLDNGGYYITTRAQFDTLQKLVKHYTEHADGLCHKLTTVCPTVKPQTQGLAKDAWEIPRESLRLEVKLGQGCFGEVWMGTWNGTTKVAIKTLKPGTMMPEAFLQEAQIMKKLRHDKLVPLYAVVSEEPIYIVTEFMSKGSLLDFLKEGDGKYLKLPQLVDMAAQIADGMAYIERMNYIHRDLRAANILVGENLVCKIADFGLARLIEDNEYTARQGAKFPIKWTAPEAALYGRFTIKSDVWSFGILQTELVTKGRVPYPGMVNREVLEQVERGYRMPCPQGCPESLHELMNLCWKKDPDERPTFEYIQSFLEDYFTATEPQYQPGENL
Sequence of SIK2 (Q9H0K1 whole entry, species assumed): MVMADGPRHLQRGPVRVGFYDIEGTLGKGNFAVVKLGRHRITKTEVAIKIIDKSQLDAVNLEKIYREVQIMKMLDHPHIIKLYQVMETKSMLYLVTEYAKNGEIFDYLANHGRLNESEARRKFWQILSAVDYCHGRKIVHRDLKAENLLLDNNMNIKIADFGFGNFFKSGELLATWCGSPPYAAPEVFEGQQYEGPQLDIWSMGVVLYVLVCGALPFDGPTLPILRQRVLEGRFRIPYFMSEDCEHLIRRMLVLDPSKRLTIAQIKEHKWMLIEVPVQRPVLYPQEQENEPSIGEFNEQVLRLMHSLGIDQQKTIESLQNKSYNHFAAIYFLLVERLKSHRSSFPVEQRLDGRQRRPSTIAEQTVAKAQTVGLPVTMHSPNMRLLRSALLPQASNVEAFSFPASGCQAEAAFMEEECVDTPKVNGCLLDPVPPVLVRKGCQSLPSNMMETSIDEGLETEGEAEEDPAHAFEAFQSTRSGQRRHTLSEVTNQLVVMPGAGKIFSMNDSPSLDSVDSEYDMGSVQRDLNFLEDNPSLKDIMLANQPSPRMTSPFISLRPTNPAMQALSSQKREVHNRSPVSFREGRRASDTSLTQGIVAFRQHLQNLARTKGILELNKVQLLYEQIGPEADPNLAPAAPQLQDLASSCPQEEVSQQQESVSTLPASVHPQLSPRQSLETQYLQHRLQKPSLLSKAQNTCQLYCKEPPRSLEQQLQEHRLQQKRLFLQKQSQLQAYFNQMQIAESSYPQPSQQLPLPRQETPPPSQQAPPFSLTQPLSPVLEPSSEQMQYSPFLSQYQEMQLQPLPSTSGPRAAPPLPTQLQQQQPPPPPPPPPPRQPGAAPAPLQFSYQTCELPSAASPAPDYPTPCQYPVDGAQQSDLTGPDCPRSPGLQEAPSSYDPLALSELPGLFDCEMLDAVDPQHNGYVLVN
Sequence of CAMKKb (Q96RR4 whole entry): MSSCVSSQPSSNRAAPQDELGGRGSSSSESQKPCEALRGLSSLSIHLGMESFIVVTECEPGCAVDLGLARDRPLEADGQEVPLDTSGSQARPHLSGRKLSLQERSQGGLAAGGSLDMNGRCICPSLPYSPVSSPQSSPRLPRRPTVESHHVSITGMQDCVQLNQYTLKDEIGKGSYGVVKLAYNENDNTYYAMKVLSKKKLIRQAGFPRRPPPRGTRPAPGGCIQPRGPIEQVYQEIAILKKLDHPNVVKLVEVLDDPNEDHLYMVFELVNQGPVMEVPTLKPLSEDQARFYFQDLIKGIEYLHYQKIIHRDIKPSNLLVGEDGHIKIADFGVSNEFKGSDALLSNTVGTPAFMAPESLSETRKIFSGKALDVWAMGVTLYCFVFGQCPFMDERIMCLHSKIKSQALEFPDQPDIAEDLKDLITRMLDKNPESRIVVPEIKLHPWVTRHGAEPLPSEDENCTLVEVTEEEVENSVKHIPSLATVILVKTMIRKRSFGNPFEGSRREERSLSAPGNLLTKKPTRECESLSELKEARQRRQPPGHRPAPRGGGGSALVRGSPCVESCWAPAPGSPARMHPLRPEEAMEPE
Sequence of WNK1 (Q9H4A3 whole entry): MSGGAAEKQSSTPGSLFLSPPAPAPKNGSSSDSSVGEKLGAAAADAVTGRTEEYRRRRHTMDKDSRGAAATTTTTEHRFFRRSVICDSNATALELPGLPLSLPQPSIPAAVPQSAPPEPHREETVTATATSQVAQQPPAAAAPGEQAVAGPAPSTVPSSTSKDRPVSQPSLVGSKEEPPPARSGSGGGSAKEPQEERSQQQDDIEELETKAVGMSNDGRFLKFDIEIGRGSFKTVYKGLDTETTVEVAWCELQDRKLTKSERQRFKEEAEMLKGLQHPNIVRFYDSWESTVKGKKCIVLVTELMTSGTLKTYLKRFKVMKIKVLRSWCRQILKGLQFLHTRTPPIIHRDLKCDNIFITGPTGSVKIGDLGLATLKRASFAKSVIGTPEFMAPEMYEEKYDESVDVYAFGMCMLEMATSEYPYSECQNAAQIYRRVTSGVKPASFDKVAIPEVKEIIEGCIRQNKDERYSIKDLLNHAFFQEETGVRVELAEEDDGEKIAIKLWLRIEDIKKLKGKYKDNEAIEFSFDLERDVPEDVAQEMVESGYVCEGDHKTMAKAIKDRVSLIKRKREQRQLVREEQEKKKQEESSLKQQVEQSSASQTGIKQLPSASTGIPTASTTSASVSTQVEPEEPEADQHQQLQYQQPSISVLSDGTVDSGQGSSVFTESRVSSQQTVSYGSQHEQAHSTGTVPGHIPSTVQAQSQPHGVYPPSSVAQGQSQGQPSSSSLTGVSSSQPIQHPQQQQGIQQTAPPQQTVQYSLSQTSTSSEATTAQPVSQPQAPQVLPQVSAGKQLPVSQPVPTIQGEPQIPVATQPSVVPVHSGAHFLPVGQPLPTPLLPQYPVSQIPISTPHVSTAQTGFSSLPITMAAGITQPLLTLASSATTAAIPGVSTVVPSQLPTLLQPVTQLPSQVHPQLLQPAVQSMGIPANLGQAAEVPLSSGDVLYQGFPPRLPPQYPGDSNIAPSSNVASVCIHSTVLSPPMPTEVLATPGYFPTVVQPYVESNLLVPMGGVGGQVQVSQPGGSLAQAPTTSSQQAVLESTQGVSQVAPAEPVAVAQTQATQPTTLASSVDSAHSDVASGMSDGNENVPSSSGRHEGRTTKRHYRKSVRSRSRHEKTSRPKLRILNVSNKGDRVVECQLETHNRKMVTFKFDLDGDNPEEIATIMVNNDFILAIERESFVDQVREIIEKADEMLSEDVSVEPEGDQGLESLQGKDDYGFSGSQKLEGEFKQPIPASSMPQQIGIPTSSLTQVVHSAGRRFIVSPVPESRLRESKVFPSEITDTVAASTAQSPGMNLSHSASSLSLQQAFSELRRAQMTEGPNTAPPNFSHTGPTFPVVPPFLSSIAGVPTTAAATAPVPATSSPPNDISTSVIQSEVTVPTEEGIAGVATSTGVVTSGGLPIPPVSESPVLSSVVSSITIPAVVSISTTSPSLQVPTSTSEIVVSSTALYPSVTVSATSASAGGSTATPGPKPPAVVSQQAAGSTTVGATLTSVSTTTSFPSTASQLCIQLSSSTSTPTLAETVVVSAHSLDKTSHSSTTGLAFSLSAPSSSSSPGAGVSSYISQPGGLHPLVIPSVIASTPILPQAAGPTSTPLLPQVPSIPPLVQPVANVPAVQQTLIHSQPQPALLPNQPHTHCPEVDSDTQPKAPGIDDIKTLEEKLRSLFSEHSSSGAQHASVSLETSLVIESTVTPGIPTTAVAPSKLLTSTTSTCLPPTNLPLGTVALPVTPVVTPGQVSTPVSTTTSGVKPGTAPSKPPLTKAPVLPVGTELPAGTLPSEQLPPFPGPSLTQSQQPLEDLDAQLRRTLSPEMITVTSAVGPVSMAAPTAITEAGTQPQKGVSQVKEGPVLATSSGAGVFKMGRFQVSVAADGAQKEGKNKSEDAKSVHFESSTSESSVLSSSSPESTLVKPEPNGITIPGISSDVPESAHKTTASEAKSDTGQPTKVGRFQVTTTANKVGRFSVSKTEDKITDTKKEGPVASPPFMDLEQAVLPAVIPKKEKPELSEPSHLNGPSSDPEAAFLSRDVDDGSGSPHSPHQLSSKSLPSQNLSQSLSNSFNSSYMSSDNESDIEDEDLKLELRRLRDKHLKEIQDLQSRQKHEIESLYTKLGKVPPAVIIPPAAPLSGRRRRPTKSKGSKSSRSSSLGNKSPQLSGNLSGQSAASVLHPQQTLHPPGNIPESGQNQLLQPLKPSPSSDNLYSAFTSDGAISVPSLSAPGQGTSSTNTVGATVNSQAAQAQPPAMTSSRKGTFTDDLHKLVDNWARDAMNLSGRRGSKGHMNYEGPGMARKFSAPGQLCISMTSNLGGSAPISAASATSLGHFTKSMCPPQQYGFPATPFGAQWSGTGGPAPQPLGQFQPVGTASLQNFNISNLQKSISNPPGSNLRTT

## Cc1cc(=O)n(C2CCCC2)c2nc(Nc3ccc(N4CC5CC(C4)N5C)cc3)ncc12 [Compound 9]
SIK2
  % activity remaining: 44%
TAK1
  % activity remaining: 6%
TAK1; radiometric filter binding panel, read-out: TAK1 pIC50 (converted)
  IC50: 209 nM
YES1
  % activity remaining: 13%
YES1; [1]
  YES1 pIC50: > 7
YES1; radiometric filter binding panel, read-out: YES1 pIC50 (converted)
  IC50: 75.9 nM
MST3
  % activity remaining: 17%
MST3; [1]
  MST3 pIC50: > 7
MST3; radiometric filter binding panel, read-out: MST3 pIC50 (converted)
  IC50: 112 nM
MARK4
  % activity remaining: 49%
MARK4; at 1 μM, radiometric filter binding assay, Dundee, read-out: MARK4 single point % inhibition
  inhibition at 1 µM: 51%
MST2
  % activity remaining: 62%
PDK1
  % activity remaining: 90%
JNK1
  % activity remaining: 47%
CAMKKb
  % activity remaining: 86%
TTK
  % activity remaining: 54%
BRK
  % activity remaining: 67%
RIPK2
  % activity remaining: 78%
BTK
  % activity remaining: 91%
GSK3b
  % activity remaining: 101%
PINK
  % activity remaining: 96%
IRAK1
  % activity remaining: 75%
WNK1
  % activity remaining: 103%
STK33
  % activity remaining: 101%

## CN1C2CC1CN(c1ccc(Nc3ncc4ccn(CC5CCOCC5)c4n3)cc1)C2 [Compound 24]
SIK2
  % activity remaining: 13%
SIK2; [1]
  SIK2 pIC50: 7.1 and 7.09
TAK1
  % activity remaining: 110%
YES1
  % activity remaining: 46%
MST3
  % activity remaining: 84%
MARK4
  % activity remaining: 95%
MST2
  % activity remaining: 91%
PDK1
  % activity remaining: 95%
JNK1
  % activity remaining: 97%
CAMKKb
  % activity remaining: 43%
TTK
  % activity remaining: 99%
BRK
  % activity remaining: 58%
RIPK2
  % activity remaining: 73%
BTK
  % activity remaining: 82%
GSK3b
  % activity remaining: 69%
PINK
  % activity remaining: 99%
IRAK1
  % activity remaining: 71%
WNK1
  % activity remaining: 84%
STK33
  % activity remaining: 93%
